Values of other authors as cited in patent US20050096390A1 (priority 2003, published 2005).

Tests used:
[1] = pH of 7.0
[2] = 160 mg fenofibrate tablets, typical average blood plasma sample

Row | Structure (SMILES) | solubility in acetone, acetonitrile, chloroform, and ether (acetone, acetonitrile, chloroform, ether) | solubility in isopropanol (isopropanol) | solubility in methanol (methanol) [mg/mL] | solubility in water | partition coefficient (octanol/water) [1] | AUC0-24 of fenofibrate [2]
1 | CC[C@H](C)C(=O)O[C@H]1C[C@H](O)C=C2C=C[C@H](C)[C@H](CC[C@@H](O)C[C@@H](O)CC(=O)[O-])[C@H]21.[Na+] (relative stereo) [Pravastatin sodium, 1-naphthalene-heptanoic acid, 1,2,6,7,8,8a-hexahydro-(beta),(beta),6-trihydroxy-2-methyl-8-(2-methyl-1-oxobutoxy)-, monosodium salt, [1S-[1(alpha)((beta)S*,(beta)S*),2(alpha),6(alpha), 8(beta)(R*),8a(alpha)]]-] | practically insoluble | slightly soluble | > 300 | > 300 mg/mL | 0.59 | 
2 | CC[C@H](C)C(=O)O[C@H]1C[C@H](O)C=C2C=C[C@H](C)[C@H](CC[C@@H](O)C[C@@H](O)CC(=O)O)[C@H]21 [Pravastatin] |  |  |  | sparingly soluble |  | 
3 | CC(C)OC(=O)C(C)(C)Oc1ccc(C(=O)c2ccc(Cl)cc2)cc1 [Fenofibrate] |  |  |  |  |  | about 118,300 h·ng/mL
